According to patent US20250059174A1, “Pharmaceutical Compounds and Compositions as C-Kit Kinase Inhibitors” (Enanta Pharmaceuticals, Inc., priority 2023, published 2025):

Tests used:
[1] = biological target: Recombinant human c-KIT kinase (Homo sapiens (Human), UniProt P10721); assay: c-KIT kinase chemiluminescence assay (ADP-Glo); type: biochemical; conditions: ATP 50 μM
Outline: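 Recombinant human c-KIT preincubated 30 min at RT in 40 mM Tris pH 7.5, 20 mM MgCl2, 0.1 mg/mL BSA, 50 μM DTT, then reacted 2 h at RT with ATP and polyEY substrate. ADP-Glo luminescence readout; activity normalized to high/low controls, IC50 and Hill coefficient from inhibitor-versus-normalized-response fit.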

M-07e cells = assay: M-07e cellular assay (SCF-mediated cell proliferation); type: cell-based; conditions: Homo sapiens, 72 hours, CellTiter Glo
Outline: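 CellTiter Glo luminescence after 72 h compound exposure in SCF (EC90)-stimulated M-07e cells expressing endogenous human c-KIT.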

Sequence of Recombinant human c-KIT kinase (P10721 26-976): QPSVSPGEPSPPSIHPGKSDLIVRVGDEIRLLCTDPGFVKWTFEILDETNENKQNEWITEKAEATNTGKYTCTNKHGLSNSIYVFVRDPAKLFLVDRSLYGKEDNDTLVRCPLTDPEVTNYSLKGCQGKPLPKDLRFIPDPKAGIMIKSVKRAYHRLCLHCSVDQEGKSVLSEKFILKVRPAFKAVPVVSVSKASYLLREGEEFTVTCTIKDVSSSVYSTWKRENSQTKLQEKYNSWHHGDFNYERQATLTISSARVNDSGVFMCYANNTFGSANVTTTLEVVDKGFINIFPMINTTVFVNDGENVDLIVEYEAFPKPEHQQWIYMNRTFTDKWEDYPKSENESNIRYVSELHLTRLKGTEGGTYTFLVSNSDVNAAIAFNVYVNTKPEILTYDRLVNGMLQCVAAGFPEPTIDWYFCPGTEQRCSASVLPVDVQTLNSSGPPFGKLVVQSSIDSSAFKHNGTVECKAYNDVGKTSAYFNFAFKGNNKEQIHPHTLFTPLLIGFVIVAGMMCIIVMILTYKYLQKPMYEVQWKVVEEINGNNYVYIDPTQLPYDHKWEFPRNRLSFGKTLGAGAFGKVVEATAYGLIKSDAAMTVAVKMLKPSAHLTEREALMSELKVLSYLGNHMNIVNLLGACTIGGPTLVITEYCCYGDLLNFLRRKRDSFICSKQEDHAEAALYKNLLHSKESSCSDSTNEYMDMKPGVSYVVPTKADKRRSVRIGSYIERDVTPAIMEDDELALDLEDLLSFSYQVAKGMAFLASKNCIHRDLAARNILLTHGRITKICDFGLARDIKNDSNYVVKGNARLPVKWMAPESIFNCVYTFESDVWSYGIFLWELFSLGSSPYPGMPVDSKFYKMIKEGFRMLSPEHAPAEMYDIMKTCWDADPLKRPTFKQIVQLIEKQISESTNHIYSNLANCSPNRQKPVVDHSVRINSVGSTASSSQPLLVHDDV

Row | Structure (SMILES) | IC50 [1] | EC50 (M-07e cells)
1 | Cc1cc(C)c(-c2ccn3ncc(C(=O)Nc4cc(-c5noc([C@H]6C[C@@H]6F)n5)ccc4C)c3c2)c(C)c1 [Example 171-2] | > 1000 nM | > 1000 nM
2 | Cc1cc(C)c(-c2ccn3ncc(C(=O)Nc4cc(-c5noc([C@H]6C[C@@H](OC(F)(F)F)C6)n5)ccc4C)c3c2)c(C)c1 [Example 171-3] | > 1000 nM | > 1000 nM
3 | Cc1nc(C)c(-c2ccn3ncc(C(=O)Nc4cc(-c5noc([C@H]6C[C@@H]6F)n5)ccc4C)c3c2)c(C)n1 [Example 171-4] | 100 to 1000 nM | 100 to 1000 nM
4 | Cc1nc(C)c(-c2ccn3ncc(C(=O)Nc4cc(-c5noc([C@H]6C[C@@H](OC(F)(F)F)C6)n5)ccc4C)c3c2)c(C)n1 [Example 171-5] | 100 to 1000 nM | 100 to 1000 nM
5 | Cc1ccc(-c2noc([C@H]3C[C@@H]3F)n2)cc1NC(=O)c1cnn2ccc(-c3c(C)nc(N)nc3C)cc12 [Example 171-6] | 100 to 1000 nM | < 100 nM
6 | Cc1ccc(-c2noc([C@H]3C[C@@H](OC(F)(F)F)C3)n2)cc1NC(=O)c1cnn2ccc(-c3c(C)nc(N)nc3C)cc12 [Example 171-7] | 100 to 1000 nM | 100 to 1000 nM
7 | Cc1ccc(-c2noc([C@H]3C[C@@H]3F)n2)cc1NC(=O)c1cnn2ccc(-c3c(C)nc(Cl)nc3C)cc12 [Example 171-8] | 100 to 1000 nM | 100 to 1000 nM
8 | Cc1ccc(-c2noc([C@H]3C[C@@H]3F)n2)cc1NC(=O)c1cnn2ccc(-c3cnccn3)cc12 [Example 171-9] | < 100 nM | < 100 nM
9 | Cc1ncc(-c2noc([C@H]3C[C@@H]3F)n2)cc1NC(=O)c1cnn2ccc(-c3c(C)nc(N)nc3C)cc12 [Example 171-10] | > 1000 nM | > 1000 nM
10 | Cc1ccc(-c2noc([C@H]3C[C@@H]3F)n2)cc1NC(=O)c1cnn2ccc(-c3c(C)nc(N4CCC4)nc3C)cc12 [Example 171-12] | 100 to 1000 nM | 100 to 1000 nM
11 | Cc1ccc(-c2noc([C@H]3C[C@@H]3F)n2)cc1NC(=O)c1cnn2ccc(-c3c(C)nc(N4CC(F)(F)C4)nc3C)cc12 [Example 171-13] | 100 to 1000 nM | 100 to 1000 nM
12 | Cc1ccc(-c2noc([C@H]3C[C@@H]3F)n2)cc1NC(=O)c1cnn2ccc(-c3c(C)nc(N4CC5(COC5)C4)nc3C)cc12 [Example 171-14] | 100 to 1000 nM | 100 to 1000 nM
13 | Cc1ccc(-c2ccn3ncc(C(=O)Nc4cc(-c5noc([C@H]6C[C@@H]6F)n5)ccc4C)c3c2)c(C)n1 [Example 171-15] | < 100 nM | < 100 nM
14 | Cc1ccc(-c2noc([C@H]3C[C@@H]3F)n2)cc1NC(=O)c1cnn2ccc(-c3ccc(C#N)nc3C)cc12 [Example 171-16] | < 100 nM | < 100 nM
15 | Cc1ccc(-c2noc([C@H]3C[C@@H]3F)n2)cc1NC(=O)c1cnn2ccc(-c3ccc(N4CC(F)(F)C4)nc3C)cc12 [Example 171-17] | < 100 nM | < 100 nM
16 | Cc1ccc(-c2noc([C@H]3C[C@@H]3F)n2)cc1NC(=O)c1cnn2ccc(-c3ccc(N4CCOCC4)nc3C)cc12 [Example 171-18] | < 100 nM | < 100 nM
17 | Cc1ccc(-c2noc([C@H]3C[C@@H]3F)n2)cc1NC(=O)c1cnn2ccc(-c3ccc(N4CC5(COC5)C4)nc3C)cc12 [Example 171-19] | < 100 nM | < 100 nM
18 | COc1ccc(-c2ccn3ncc(C(=O)Nc4cc(-c5noc([C@H]6C[C@@H]6F)n5)ccc4C)c3c2)c(C)n1 [Example 171-20] | < 100 nM | < 100 nM
19 | Cc1ccc(-c2noc([C@H]3C[C@@H]3F)n2)cc1NC(=O)c1cnn2ccc(-c3cc(C(F)(F)F)nn3C)cc12 [Example 171-22] | 100 to 1000 nM | 100 to 1000 nM
20 | Cc1ccc(-c2noc([C@H]3C[C@@H]3F)n2)cc1NC(=O)c1cnn2ccc(-c3cc(C(F)(F)F)nn3C(C)C)cc12 [Example 171-23] | > 1000 nM | > 1000 nM
21 | Cc1ccc(-c2noc([C@H]3C[C@@H]3F)n2)cc1NC(=O)c1cnn2ccc(-c3cnc(N4CC(F)(F)C4)cc3C)cc12 [Example 171-24] | < 100 nM | < 100 nM
22 | Cc1ccc(-c2noc([C@H]3C[C@@H]3F)n2)cc1NC(=O)c1cnn2ccc(-c3cnc(N4CC5(COC5)C4)cc3C)cc12 [Example 171-25] | < 100 nM | < 100 nM
23 | Cc1cc(C)c(-c2ccn3ncc(C(=O)Nc4cc(-c5noc([C@H]6C[C@@H]6F)n5)ccc4C)c3c2)cn1 [Example 171-26] | < 100 nM | < 100 nM
24 | Cc1ccc(-c2noc([C@H]3C[C@@H]3F)n2)cc1NC(=O)c1cnn2ccc(-c3cnc(N)cc3C)cc12 [Example 171-28] | < 100 nM | < 100 nM
25 | Cc1ccc(-c2noc([C@H]3C[C@@H]3F)n2)cc1NC(=O)c1cnn2ccc(-c3ccc(N)nc3C)cc12 [Example 171-29] | < 100 nM | < 100 nM
26 | Cc1cnc(-c2ccn3ncc(C(=O)Nc4cc(-c5noc([C@H]6C[C@@H]6F)n5)ccc4C)c3c2)c(C)n1 [Example 171-30] | < 100 nM | < 100 nM

Row | Structure (SMILES) | IC50 [1] | EC50 (M-07e cells)
27 | CC(=O)Nc1nc(C)c(-c2ccn3ncc(C(=O)Nc4cc(-c5noc([C@H]6C[C@@H]6F)n5)ccc4C)c3c2)c(C)n1 [Example 171-31] | 100 to 1000 nM | < 100 nM
28 | Cc1nccc(-c2ccn3ncc(C(=O)Nc4cc(-c5noc([C@H]6C[C@@H]6F)n5)ccc4C)c3c2)n1 [Example 171] | < 100 nM | < 100 nM
29 | Cc1ccc(-c2noc([C@H]3C[C@@H]3F)n2)cc1NC(=O)c1cnn2ccc(N3CCC4(COC4)C3)cc12 [Example 173] | < 100 nM | < 100 nM
30 | Cc1ccc(-c2noc([C@H]3C[C@@H]3F)n2)cc1NC(=O)c1cnn2ccc(N3C[C@@H](CS(C)(=O)=O)[C@@H]3C)cc12 [Example 174] | < 100 nM | < 100 nM
31 | Cc1ccc(-c2noc([C@H]3C[C@@H]3F)n2)cc1NC(=O)c1cnn2ccc(N3C[C@@H](CS(C)(=O)=O)[C@H]3C)cc12 [Example 175] | < 100 nM | < 100 nM
32 | Cc1ccc(-c2noc([C@H]3C[C@@H]3F)n2)cc1NC(=O)c1cnn2ccc(N3CCC34COC4)cc12 [Example 176] | < 100 nM | < 100 nM
33 | Cc1ccc(-c2noc([C@H]3C[C@@H]3F)n2)cc1NC(=O)c1cnn2ccc(N3CC4(CN(CC(F)(F)F)C4)C3)cc12 [Example 177] | < 100 nM | < 100 nM
34 | Cc1ccc(-c2noc([C@H]3C[C@@H]3F)n2)cc1NC(=O)c1cnn2ccc(N3CC4(CNC(=O)C4)C3)cc12 [Example 178] | < 100 nM | < 100 nM
35 | Cc1ccc(-c2noc([C@H]3C[C@@H]3F)n2)cc1NC(=O)c1cnn2ccc(N3CC(C(C)(C)O)C3)cc12 [Example 179] | < 100 nM | < 100 nM
36 | Cc1ccc(-c2noc([C@H]3C[C@@H]3F)n2)cc1NC(=O)c1cnn2ccc(N3CC(O)(C(F)(F)F)C3)cc12 [Example 180] | < 100 nM | < 100 nM
37 | Cc1ccc(-c2noc([C@H]3C[C@@H]3F)n2)cc1NC(=O)c1cnn2ccc(N3CC4(C3)CC(C)(O)C4)cc12 [Example 181] | < 100 nM | < 100 nM
38 | Cc1ccc(-c2noc([C@H]3C[C@@H]3F)n2)cc1NC(=O)c1cnn2ccc(N3CC(CO)(CCl)C3)cc12 [Example 182] | < 100 nM | < 100 nM
39 | Cc1ccc(-c2noc([C@H]3C[C@@H]3F)n2)cc1NC(=O)c1cnn2ccc(N3CC4(CCOC4)C3)cc12 [Example 183] | < 100 nM | < 100 nM
40 | Cc1ccc(-c2noc([C@H]3C[C@@H]3F)n2)cc1NC(=O)c1cnn2ccc(N3CCC4(CC3)CC(C)(O)C4)cc12 [Example 184] | < 100 nM | < 100 nM
41 | Cc1ccc(-c2noc([C@H]3C[C@@H]3F)n2)cc1NC(=O)c1cnn2ccc(N3CC4(CCN(CC(F)F)C4)C3)cc12 [Example 185] | < 100 nM | < 100 nM
42 | COC1CC2(C1)CN(c1ccn3ncc(C(=O)Nc4cc(-c5noc([C@H]6C[C@@H]6F)n5)ccc4C)c3c1)C2 [Example 186] | < 100 nM | < 100 nM
43 | Cc1ccc(-c2noc([C@H]3C[C@@H]3F)n2)cc1NC(=O)c1cnn2ccc(N3CC4(C3)CS(=O)(=O)C4)cc12 [Example 187] | < 100 nM | < 100 nM
44 | Cc1ccc(-c2noc([C@H]3C[C@@H]3F)n2)cc1NC(=O)c1cnn2ccc(N3CC4(CCN(CC(F)(F)F)C4)C3)cc12 [Example 188] | 100 to 1000 nM | 100 to 1000 nM
45 | Cc1ccc(-c2noc([C@H]3C[C@@H]3F)n2)cc1NC(=O)c1cnn2ccc(N3C4COCC3C4)cc12 [Example 189] | < 100 nM | < 100 nM
46 | Cc1ccc(-c2noc([C@H]3C[C@@H]3F)n2)cc1NC(=O)c1cnn2ccc(N3CCN(C(=O)OC(C)(C)C)C[C@H]3C)cc12 [Example 190] | 100 to 1000 nM | 100 to 1000 nM
47 | Cc1ccc(-c2noc([C@H]3C[C@@H]3F)n2)cc1NC(=O)c1cnn2ccc(N3CCN(C(=O)OC(C)(C)C)C[C@@H]3C)cc12 [Example 191] | < 100 nM | < 100 nM
48 | Cc1ccc(-c2noc([C@H]3C[C@@H]3F)n2)cc1NC(=O)c1cnn2ccc(N3CC[C@@H](NC(=O)OC(C)(C)C)C3)cc12 [Example 192] | 100 to 1000 nM | 100 to 1000 nM
49 | Cc1ccc(-c2noc([C@H]3C[C@@H]3F)n2)cc1NC(=O)c1cnn2ccc(N3CC[C@H](NC(=O)OC(C)(C)C)C3)cc12 [Example 193] | 100 to 1000 nM | 100 to 1000 nM
50 | Cc1ccc(-c2noc([C@H]3C[C@@H]3F)n2)cc1NC(=O)c1cnn2ccc(N3CC4CC(C3)O4)cc12 [Example 194] | < 100 nM | < 100 nM
51 | Cc1ccc(-c2noc([C@H]3C[C@@H]3F)n2)cc1NC(=O)c1cnn2ccc(N3CCNC[C@H]3C)cc12 [Example 195] | < 100 nM | 100 to 1000 nM
52 | Cc1ccc(-c2noc([C@H]3C[C@@H]3F)n2)cc1NC(=O)c1cnn2ccc(N3CCNC[C@@H]3C)cc12 [Example 196] | < 100 nM | < 100 nM
